From ChEMBL document CHEMBL1201862, “PubChem BioAssay data set” (2004)
The source made the active and inactive calls.

Assays:
[1] = test system: Escherichia coli; assay: microbe, parasite or virus in culture
[2] = target: T1, Bcl-2-related protein A1 (Mus musculus, UniProt Q07440); format: functional;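 note: confirmatory dose–response counterscreen on Bfl-1, used to check hits from a UBC13 polyubiquitin inhibitor campaign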
T1 sequence (Q07440 whole entry): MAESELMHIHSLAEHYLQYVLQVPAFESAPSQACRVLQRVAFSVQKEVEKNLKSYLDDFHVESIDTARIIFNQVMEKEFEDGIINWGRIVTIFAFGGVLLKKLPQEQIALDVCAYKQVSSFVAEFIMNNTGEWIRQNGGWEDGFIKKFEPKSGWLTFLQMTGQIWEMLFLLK

[3] = target: T2, Ubiquitin-conjugating enzyme E2 N (Homo sapiens, UniProt P61088); format: functional
T2 sequence (P61088 whole entry): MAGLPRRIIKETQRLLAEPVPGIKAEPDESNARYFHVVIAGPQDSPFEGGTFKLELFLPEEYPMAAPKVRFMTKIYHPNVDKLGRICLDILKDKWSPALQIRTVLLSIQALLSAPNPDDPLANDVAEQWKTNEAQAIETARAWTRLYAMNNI

[4] = target: T2, Ubiquitin-conjugating enzyme E2 N; format: functional; remark: listed apart in the source
[5] = target: Voltage-gated inwardly rectifying potassium channel KCNH2 (Homo sapiens, UniProt Q12809); conditions: Potency;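 note: confirmatory quantitative high-throughput screen measuring inhibition of hERG channel activity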
Voltage-gated inwardly rectifying potassium channel KCNH2, sequence (Q12809 whole entry): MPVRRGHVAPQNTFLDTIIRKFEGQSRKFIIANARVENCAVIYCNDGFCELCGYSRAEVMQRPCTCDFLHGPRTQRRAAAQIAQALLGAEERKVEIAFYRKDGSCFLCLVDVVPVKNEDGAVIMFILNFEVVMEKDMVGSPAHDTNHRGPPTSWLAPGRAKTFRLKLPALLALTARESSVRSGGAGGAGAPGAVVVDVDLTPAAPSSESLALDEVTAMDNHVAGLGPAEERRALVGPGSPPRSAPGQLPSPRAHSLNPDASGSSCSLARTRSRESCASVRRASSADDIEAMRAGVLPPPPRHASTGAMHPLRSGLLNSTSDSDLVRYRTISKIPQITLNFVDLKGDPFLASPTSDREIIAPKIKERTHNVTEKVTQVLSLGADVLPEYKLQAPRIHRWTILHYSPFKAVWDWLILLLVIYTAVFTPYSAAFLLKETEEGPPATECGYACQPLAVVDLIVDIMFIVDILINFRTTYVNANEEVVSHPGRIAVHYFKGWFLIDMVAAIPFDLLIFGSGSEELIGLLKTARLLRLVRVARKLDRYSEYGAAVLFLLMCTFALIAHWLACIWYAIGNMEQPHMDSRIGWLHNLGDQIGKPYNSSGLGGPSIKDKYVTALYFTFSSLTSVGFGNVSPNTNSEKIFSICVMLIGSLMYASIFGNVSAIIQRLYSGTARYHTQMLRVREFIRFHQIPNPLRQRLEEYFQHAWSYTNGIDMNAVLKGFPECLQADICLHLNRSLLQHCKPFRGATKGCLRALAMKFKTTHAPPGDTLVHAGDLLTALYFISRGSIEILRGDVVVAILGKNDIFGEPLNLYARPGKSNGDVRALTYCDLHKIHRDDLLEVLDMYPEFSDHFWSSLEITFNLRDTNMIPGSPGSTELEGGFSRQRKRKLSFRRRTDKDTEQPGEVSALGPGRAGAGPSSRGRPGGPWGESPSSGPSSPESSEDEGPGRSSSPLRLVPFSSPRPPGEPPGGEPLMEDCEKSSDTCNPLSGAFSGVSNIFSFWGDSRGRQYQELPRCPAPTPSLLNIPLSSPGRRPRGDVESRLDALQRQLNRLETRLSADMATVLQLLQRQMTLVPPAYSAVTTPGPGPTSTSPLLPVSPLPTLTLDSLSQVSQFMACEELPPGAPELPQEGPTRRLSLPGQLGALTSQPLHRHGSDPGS

[6] = insulin promoter down-regulators in MIN6 cells, imaging, high-content screening, mouse beta cells (AID 1628); format: functional
[7] = cytotoxicity in MIN6 insulinoma cells, dose response, cytotoxicity control, cell-based, mouse insulinoma (AID 2122); format: functional;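 note: confirmatory high-throughput counterscreen run to flag cytotoxic compounds; mouse MIN-6 beta cells carrying an insulin promoter eGFP reporter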
[8] = Shn3 3'UTR reporter inhibitors, dose response, cell-based, Clone20 osteoblasts, firefly luciferase, cherry-picked (AID 624132); format: functional;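 note: firefly luciferase luminescence from reporter carrying the Shn3 3'UTR in osteoblasts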
[9] = HepG2 cell cytotoxicity, dose response, cytotoxicity control for Shn3 inhibitor project, CellTiter-Glo, cherry-picked (AID 624134); format: functional, cell-based
[10] = control 3'UTR Renilla luciferase suppression, dose response, counter-screen for Shn3 inhibitor project, cell-based, Clone20-Shn3RL, cherry-picked (AID 624133); format: functional
[11] = target: T3, Microphthalmia-associated transcription factor (Homo sapiens, UniProt O75030); assay: TRPM1 promoter luciferase signal decrease, dose response, MITF inhibitor project, cell-based, SK-MEL-5, cherry-picked, set 3 (AID 493073); format: functional
T3 sequence (O75030 whole entry): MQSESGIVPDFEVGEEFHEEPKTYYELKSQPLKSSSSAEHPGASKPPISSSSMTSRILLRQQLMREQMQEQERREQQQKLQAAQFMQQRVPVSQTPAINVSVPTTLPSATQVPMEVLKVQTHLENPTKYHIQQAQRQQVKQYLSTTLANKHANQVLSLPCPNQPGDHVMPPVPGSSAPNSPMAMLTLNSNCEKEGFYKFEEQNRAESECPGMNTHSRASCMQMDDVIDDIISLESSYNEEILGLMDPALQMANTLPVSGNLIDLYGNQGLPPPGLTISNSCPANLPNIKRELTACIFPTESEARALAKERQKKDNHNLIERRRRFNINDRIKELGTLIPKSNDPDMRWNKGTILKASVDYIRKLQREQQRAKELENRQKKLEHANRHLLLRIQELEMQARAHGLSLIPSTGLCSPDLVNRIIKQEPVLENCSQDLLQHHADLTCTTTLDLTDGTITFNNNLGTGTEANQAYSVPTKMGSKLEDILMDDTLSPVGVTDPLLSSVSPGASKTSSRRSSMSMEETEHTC

[12] = target: T4, Cysteine protease ATG4B (Homo sapiens, UniProt Q9Y4P1); format: functional;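 note: Fluorescence-based dose-response confirmation assay measuring inhibition of ATG4B activity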
T4 sequence (Q9Y4P1 whole entry): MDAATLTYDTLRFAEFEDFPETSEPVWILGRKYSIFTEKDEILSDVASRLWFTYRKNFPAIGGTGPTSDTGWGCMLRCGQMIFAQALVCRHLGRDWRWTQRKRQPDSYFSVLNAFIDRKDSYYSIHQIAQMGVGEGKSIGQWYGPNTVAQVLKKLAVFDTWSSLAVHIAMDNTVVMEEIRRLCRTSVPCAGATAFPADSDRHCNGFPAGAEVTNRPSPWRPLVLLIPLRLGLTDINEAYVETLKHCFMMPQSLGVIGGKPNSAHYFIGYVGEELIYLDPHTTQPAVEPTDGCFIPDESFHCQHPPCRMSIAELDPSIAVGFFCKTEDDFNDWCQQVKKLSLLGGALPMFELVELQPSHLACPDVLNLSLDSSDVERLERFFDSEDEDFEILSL

[13] = target: Phospholipase A2 (Homo sapiens, UniProt P04054); format: functional;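 note: confirmatory dose-response counterscreen on phospholipase A2, testing hits that came from an ultra-high-throughput screen for ATG4B inhibitors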
Phospholipase A2, sequence (P04054 whole entry): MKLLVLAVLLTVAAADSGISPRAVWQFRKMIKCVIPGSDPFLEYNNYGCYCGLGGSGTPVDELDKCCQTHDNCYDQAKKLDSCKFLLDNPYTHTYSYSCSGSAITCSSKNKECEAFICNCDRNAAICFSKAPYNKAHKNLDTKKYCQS

[14] = inhibitors of intracellular T. cruzi replication, confirmation, NIH3T3 host cells, beta-gal luminescence (AID 2044); format: functional, cell-based;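 note: intracellular parasites grown in NIH/3T3 mouse fibroblasts as host cells; luminescent beta-galactosidase reporter signal from transgenic T. cruzi replicating inside host cells; inhibitors lower the luminescence signal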
[15] = cytotoxicity toward NIH3T3 fibroblasts, dose response, counter-screen, cell-based, ATP luminescence, mouse fibroblasts (AID 2010); format: functional;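 note: cells exposed to compound for about 90 hours before reading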
[16] = target: Heat shock protein HSP 90-alpha (Homo sapiens, UniProt P07900); format: functional, organism-based
[17] = target: T5, RNA-binding protein pos-1 (Caenorhabditis elegans, UniProt G5EF15); assay: inhibitors of POS-1/mex-3 RNA binding, dose response, biochemical, fluorescence polarization (AID 1964);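 note: purified POS-1 fused to maltose binding protein made in E. coli; potency of compounds blocking POS-1 binding to fluorescent RNA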
T5 sequence (G5EF15 whole entry): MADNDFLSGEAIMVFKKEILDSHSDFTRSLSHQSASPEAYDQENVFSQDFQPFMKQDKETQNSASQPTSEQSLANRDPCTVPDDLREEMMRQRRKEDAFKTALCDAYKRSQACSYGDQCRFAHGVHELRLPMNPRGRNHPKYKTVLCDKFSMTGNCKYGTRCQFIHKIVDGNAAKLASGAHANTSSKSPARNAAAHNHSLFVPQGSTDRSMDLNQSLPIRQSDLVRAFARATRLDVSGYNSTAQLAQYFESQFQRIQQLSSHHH

[18] = target: T6, Zinc finger protein mex-5 (Caenorhabditis elegans, UniProt Q9XUB2); assay: MEX-5/TCR-2 RNA interaction inhibitors, dose response, biochemical, C. elegans, fluorescence polarization (AID 1960)
T6 sequence (Q9XUB2 whole entry): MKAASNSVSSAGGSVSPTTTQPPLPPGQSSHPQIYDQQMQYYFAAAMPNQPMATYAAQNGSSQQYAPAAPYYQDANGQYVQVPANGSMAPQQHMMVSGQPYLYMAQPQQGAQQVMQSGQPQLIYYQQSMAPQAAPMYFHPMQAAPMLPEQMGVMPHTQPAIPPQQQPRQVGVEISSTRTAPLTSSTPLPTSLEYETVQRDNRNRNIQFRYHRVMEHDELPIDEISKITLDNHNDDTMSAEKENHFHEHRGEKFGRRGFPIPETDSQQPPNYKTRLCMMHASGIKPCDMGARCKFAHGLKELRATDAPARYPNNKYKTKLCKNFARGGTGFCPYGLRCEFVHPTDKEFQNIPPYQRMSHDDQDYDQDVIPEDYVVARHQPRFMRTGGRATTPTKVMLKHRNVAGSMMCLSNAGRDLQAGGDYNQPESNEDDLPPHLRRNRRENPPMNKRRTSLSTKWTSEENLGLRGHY

[19] = target: Troponin, cardiac muscle (Homo sapiens, UniProt P19429+P45379+P63316); assay: Fluorescence-based biochemical high throughput dose response assay for activators of the calcium sensitivity of cardiac Regulated Thin Filaments (RTF). [Related pubchem assays (depositor defined):AID493008, AID493018, AID504382, AID504383]; format: protein-complex assay
[20] = target: Cytochrome P450 2C19 (Homo sapiens, UniProt P33261); assay: Cytochrome panel assay with activity outcomes. Panel member name: p450-cyp2c19 Compounds with AC50 equal or less than 10 uM are considered active; format: functional; conditions: read-out: AC50
Cytochrome P450 2C19, sequence (P33261 whole entry): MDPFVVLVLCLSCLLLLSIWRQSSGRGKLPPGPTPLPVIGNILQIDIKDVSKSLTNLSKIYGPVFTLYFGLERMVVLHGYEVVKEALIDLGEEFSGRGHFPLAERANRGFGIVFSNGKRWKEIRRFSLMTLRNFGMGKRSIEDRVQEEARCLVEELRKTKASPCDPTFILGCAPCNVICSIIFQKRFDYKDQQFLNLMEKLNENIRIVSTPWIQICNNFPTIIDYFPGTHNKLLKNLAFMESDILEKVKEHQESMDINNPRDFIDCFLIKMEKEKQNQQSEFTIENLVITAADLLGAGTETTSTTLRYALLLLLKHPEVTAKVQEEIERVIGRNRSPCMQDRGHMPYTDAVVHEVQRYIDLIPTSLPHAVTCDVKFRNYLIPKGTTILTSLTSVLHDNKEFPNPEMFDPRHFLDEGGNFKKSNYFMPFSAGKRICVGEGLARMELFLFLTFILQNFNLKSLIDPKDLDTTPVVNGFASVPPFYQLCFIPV

[21] = target: T7, Corticotropin-releasing factor receptor 2/Corticotropin-releasing factor-binding protein (Homo sapiens, UniProt P24387+Q13324); assay: activators of CRF receptor 2 with binding protein – uHTS hits, confirmation (AID 602473); format: functional; conditions: read-out: EC50_Mean
T7 sequence (Q13324 whole entry): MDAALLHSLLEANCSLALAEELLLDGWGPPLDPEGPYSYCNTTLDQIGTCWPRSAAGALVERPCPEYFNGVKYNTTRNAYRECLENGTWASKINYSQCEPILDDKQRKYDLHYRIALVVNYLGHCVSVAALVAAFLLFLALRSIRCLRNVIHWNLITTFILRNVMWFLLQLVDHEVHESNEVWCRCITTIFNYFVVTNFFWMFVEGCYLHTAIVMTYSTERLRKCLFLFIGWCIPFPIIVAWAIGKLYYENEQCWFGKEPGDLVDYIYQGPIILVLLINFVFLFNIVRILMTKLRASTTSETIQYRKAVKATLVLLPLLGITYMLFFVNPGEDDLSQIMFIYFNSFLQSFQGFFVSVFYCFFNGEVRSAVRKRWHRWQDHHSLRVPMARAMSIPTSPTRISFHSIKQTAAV
T7 sequence (P24387 whole entry): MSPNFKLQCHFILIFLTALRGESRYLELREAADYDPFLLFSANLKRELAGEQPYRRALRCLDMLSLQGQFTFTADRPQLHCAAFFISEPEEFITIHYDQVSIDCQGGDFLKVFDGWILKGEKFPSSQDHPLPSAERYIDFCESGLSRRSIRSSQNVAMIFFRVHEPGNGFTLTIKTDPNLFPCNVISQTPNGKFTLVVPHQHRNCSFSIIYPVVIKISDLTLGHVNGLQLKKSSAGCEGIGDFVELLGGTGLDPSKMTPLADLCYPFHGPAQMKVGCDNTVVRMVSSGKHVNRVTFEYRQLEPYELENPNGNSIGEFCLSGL

[22] = target: T8, Cytochrome P450 1A2 (Homo sapiens, UniProt P05177);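 note: PubChem cytochrome P450 panel assay, CYP1A2 panel member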
T8 sequence (P05177 whole entry): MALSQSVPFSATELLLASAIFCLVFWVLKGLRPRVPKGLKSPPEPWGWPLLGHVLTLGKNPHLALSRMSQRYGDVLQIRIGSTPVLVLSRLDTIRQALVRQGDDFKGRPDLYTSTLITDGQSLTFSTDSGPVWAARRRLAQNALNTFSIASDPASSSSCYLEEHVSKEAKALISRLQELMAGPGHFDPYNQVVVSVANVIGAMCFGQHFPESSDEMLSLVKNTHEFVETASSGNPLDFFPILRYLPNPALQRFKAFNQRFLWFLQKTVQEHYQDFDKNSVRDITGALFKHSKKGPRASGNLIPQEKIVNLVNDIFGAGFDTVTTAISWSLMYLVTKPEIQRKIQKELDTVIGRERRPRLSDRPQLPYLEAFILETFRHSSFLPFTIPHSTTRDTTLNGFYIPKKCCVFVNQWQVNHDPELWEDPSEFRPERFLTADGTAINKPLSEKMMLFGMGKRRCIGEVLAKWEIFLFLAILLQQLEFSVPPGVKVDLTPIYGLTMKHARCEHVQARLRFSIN

[23] = target: Cytochrome P450 2C9 (Homo sapiens, UniProt P11712)
Cytochrome P450 2C9, sequence (P11712 whole entry): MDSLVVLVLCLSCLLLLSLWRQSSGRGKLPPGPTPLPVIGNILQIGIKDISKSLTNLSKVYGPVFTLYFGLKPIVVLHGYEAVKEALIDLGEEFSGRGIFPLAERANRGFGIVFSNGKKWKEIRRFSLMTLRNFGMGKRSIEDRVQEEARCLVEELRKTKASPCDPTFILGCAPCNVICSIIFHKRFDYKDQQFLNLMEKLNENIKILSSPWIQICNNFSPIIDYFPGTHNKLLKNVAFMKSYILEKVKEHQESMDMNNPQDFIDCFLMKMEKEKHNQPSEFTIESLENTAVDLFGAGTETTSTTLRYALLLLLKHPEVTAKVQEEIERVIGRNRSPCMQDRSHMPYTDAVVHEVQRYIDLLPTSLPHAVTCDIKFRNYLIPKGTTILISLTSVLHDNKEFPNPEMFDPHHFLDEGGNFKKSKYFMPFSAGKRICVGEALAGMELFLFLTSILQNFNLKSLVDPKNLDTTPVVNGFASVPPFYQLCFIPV

[24] = Luminescence Cell-Based Dose Retest to Confirm Inhibitors of Cancer Stem Cells. [Related pubchem assays (depositor defined):AID2717, AID2721]; format: functional; conditions: Homo sapiens
[25] = test system: Vero; assay: cells; format: functional, cell-based; conditions: Chlorocebus sabaeus
[26] = test system: Vero; assay: cells; format: functional; conditions: Chlorocebus sabaeus

SMILES: CS(=O)(=O)N1CCN(C(=O)c2cccnc2)CC1
- AC50 [1]: > 150 µM (inactive)

SMILES: CC1(C)Cc2c(sc(NC(=O)C(=O)NCCCN3CCOCC3)c2C(N)=O)CO1
- IC50 [2]: > 20 µM (inactive)
- IC50 [3]: 7.92 µM (active)
- IC50 [4]: 2.14 µM (active)

SMILES: CC(O)[C@@H](O)[C@H]1CNc2nc(N)[nH]c(=O)c2N1 (some centres not stated)
- AC50 [5]: 3.55 µM (inconclusive)

SMILES: Cc1ccc(NC(=O)CN(C)CC(=O)Nc2cccc(F)c2)cc1[N+](=O)[O-]
- IC50 [6]: 0.765 µM (active)
- IC50 [7]: 0.487 µM (active)
- AC50 [8]: 0.57 µM (active)
- AC50 [9]: > 70 µM (inactive)
- AC50 [10]: 10.1 µM (active)

SMILES: COc1ccc(C(=O)C(CN2CCOCC2)c2ccccc2)cc1 (configuration not stated)
- IC50 [6]: 4.99 µM (active)
- IC50 [7]: 4.42 µM (active)
- AC50 [11]: 7.29 µM (active)
- AC50 [8]: 5.59 µM (active)
- AC50 [9]: > 70 µM (inactive)
- AC50 [10]: 11.2 µM (active)

SMILES: CC1CC(C)CN(C(=O)c2ccc(C(=O)c3ccccc3)cc2)C1 (configuration not stated)
- IC50 [12]: 10.8 µM (active)
- IC50 [13]: 8.32 µM (active)

SMILES: Cc1sc2nc(C3CCCCC3)nc(SCC(=O)N3CC(=O)Nc4ccccc43)c2c1C
- IC50 [12]: 0.316 µM (active)
- IC50 [13]: 0.182 µM (active)

SMILES: CC(C)Cn1cnc2c(c(-c3ccccc3)c(-c3ccccc3)n2Cc2ccco2)c1=N
- IC50 [6]: 1.69 µM (active)
- IC50 [7]: 2.88 µM (active)
- EC50 [14]: 0.879 µM (active)
- EC50 [15]: 8.39 µM (active)

SMILES: CCCCCCOC(=O)Sc1nc2ccccc2o1
- AC50 [16]: 2.78 µM (active)

SMILES: COc1ccc(C(=O)Nc2cc(C(C)=O)c(/C=C/N(C)C)oc2=O)cc1
- EC50 [17]: 54.1 µM (active)
- EC50 [18]: 54.8 µM (active)
- EC50 [19]: 10.5 µM (inactive)
- AC50 [20]: 10 µM (inconclusive)
- EC50 [21]: 6.69 µM (active)
- AC50 [22]: 15.8 µM (inconclusive)
- AC50 [23]: 22.4 µM (inconclusive)

SMILES: O=C1c2cccc3cccc(c23)C(=O)N1CCN1CCN(CC(O)COCc2ccc(Cl)cc2)CC1 (configuration not stated)
- IC50 [2]: > 20 µM (inactive)
- IC50 [3]: 2.89 µM (active)
- IC50 [4]: 2.31 µM (active)

SMILES: C=C(C)C(=O)OCCCCCCCCCC
- AC50 [5]: 3.55 µM (inconclusive)

SMILES: CCN(Cc1ccccc1)S(=O)(=O)c1ccc(C(=O)N(CCCN(C)C)c2nc3cc4c(cc3s2)OCCO4)cc1
- IC50 [2]: > 20 µM (inactive)
- IC50 [3]: 2.81 µM (active)
- IC50 [4]: 2.93 µM (active)

SMILES: Cc1nc(NC(=O)c2ccco2)sc1-c1csc(Nc2ccc(Cl)cc2)n1
- AC50 [24]: 2.03 µM (active)
- AC50 [1]: 39.7 µM (active)

SMILES: Oc1cccc(Cl)c1Cl
- AC50 [5]: 5.01 µM (inconclusive)

SMILES: CCn1c(=O)c2nc(Cl)[nH]c2n(CC)c1=O
- IC50 [25]: 17 µM (active)
- CC50 [26]: > 25 µM (active)

SMILES: Oc1c(Br)cc(Br)cc1/C=N/c1ccc2c(c1)OCO2
- IC50 [12]: 4.43 µM (active)
- IC50 [13]: 7.68 µM (active)

SMILES: Oc1cc2c(cc1O)CN(C(=S)NCCc1ccc(Cl)cc1)CCC2 [CAPSAZEPINE]
- AC50 [5]: 11.2 µM (inconclusive)
